In patent US20030232102A1, “Total glycosides of paeony, method to prepare the same and uses thereof” (priority 2001, published 2003):

Tested on: patients with rheumatoid arthritis
Assay: Phase II clinical study: adverse (reverse) drug effects and drug toleration
Assay type: in vivo, human
Procedure: It was a multiple-centered, randomized, parallel, positive controlled Phrase II clinical study.
The eneral condition of patients was evaluated on each visit and follow-up survey. Patients were inquired of symptoms and signs into a 26-item list of side effect. Once a possible side effect occurred, the relevant information as time, severity, frequency, duration, method used in release and its result were recorded by the doctor. […] A second disease occurred during the study was not counted in as a side effect. Index of overall side-effect is as below:
2=upset of medium severity, interfere with the daily life of patient
3=sever unwell, obviously affect a normal daily life and may need a bed rest.
4=life threatening side effect
Investigators should score individually on drug toleration in each patient after the test base on the following criteria:
0=bear sever side effect(s) and need to halt the test
1=side effects(s) of medium severity, relevant treatments is adopted.
2=mild side effect(s), no treatment was needed

[1] = double-blind, 4 weeks, column 1
[2] = double-blind, 12 weeks, column 1
[3] = double-blind, 12 weeks, column 2
[4] = overall group, 4 weeks, column 1
[5] = overall group, 4 weeks, column 2
[6] = overall group, 4 weeks, column 3
[7] = overall group, 8 weeks, column 1
[8] = overall group, 8 weeks, column 2
[9] = overall group, 8 weeks, column 3
[10] = overall group, 12 weeks, column 1
[11] = overall group, 12 weeks, column 2
[12] = overall group, 24 weeks, column 1
[13] = overall group, 24 weeks, column 2

CN(Cc1cnc2nc(N)nc(N)c2n1)c1ccc(C(=O)N[C@@H](CCC(=O)O)C(=O)O)cc1 [MTX, Methotrexate]
8: Events of reverse drug effects: Nausea [5]
6: Events of reverse drug effects: Dizziness [4]
5: Events of reverse drug effects: Abd distension [5] | Events of reverse drug effects: Insomnia [7] | Events of reverse drug effects: Bad appetite [8] | Events of reverse drug effects: Insomnia [10]
27: Events of reverse drug effects: Bad appetite [4]
15: Events of reverse drug effects: Abd distension [10]
2: Events of reverse drug effects: Bad appetite [2] | Events of reverse drug effects: Bad appetite [3] | Events of reverse drug effects: Stomatitis [4] | Events of reverse drug effects: Burning heart [6] | Events of reverse drug effects: Headache [7] | Events of reverse drug effects: Lethargy [7] | Events of reverse drug effects: Vomiting [7] | Events of reverse drug effects: Burning heart [10] | Events of reverse drug effects: Constipation [10] | Events of reverse drug effects: Headache [10] | Events of reverse drug effects: Palpitation [10] | Events of reverse drug effects: Headache [12] | Events of reverse drug effects: Vomiting [12] | Events of reverse drug effects: Nausea [13]
11: Events of reverse drug effects: Abd distension [7]
1: Events of reverse drug effects: Headache [1] | Events of reverse drug effects: Dizziness [2] | Events of reverse drug effects: Frequency of micturition [2] | Events of reverse drug effects: Headache [2] | Events of reverse drug effects: Lethargy [2] | Events of reverse drug effects: Insomnia [3] | Events of reverse drug effects: Burning heart [4] | Events of reverse drug effects: Diarrhea [4] | Events of reverse drug effects: Headache [4] | Events of reverse drug effects: Lethargy [4] | Events of reverse drug effects: Stomachache [4] | Events of reverse drug effects: Diarrhea [5] | Events of reverse drug effects: Headache [5] | Events of reverse drug effects: Stomachache [5] | Events of reverse drug effects: Stomachache [6] | Events of reverse drug effects: Diarrhea [7] | Events of reverse drug effects: Burning heart [8] | Events of reverse drug effects: Headache [8] | Events of reverse drug effects: Skin rash [8] | Events of reverse drug effects: Stomatitis [8] | Events of reverse drug effects: Vomiting [8] | Events of reverse drug effects: Abd distension [9] | Events of reverse drug effects: Bad appetite [9] | Events of reverse drug effects: Burning heart [9] | Events of reverse drug effects: Constipation [9] | Events of reverse drug effects: Diarrhea [10] | Events of reverse drug effects: Lethargy [10] | Events of reverse drug effects: Skin rash [10] | Events of reverse drug effects: Headache [11] | Events of reverse drug effects: Insomnia [11] | Events of reverse drug effects: Stomatitis [11] | Events of reverse drug effects: Burning heart (overall group, 12 weeks, column 3) | Events of reverse drug effects: Dizziness [12] | Events of reverse drug effects: Insomnia [12] | Events of reverse drug effects: Insomnia [13] | Events of reverse drug effects: Vomiting [13]
4: Events of reverse drug effects: Nausea [2] | Events of reverse drug effects: Nausea [3] | Events of reverse drug effects: Dizziness [7] | Events of reverse drug effects: Abd distension [8] | Events of reverse drug effects: Dizziness [10] | Events of reverse drug effects: Abd distension [11]
28: Events of reverse drug effects: Bad appetite [7]
14: Events of reverse drug effects: Nausea [4]
16: Events of reverse drug effects: Nausea [7]
7: Events of reverse drug effects: Abd distension [4] | Events of reverse drug effects: Nausea [8] | Events of reverse drug effects: Nausea [12]
10: Events of reverse drug effects: Nausea [11]
3: Events of reverse drug effects: Dizziness [1] | Events of reverse drug effects: Constipation [4] | Events of reverse drug effects: Palpitation [4] | Events of reverse drug effects: Vomiting [4] | Events of reverse drug effects: Bad appetite [5] | Events of reverse drug effects: Burning heart [7] | Events of reverse drug effects: Constipation [7] | Events of reverse drug effects: Palpitation [7] | Events of reverse drug effects: Vomiting [10] | Events of reverse drug effects: Bad appetite [11] | Events of reverse drug effects: Bad appetite [12]
9: Events of reverse drug effects: Stomatitis [7] | Events of reverse drug effects: Stomatitis [10]
25: Events of reverse drug effects: Nausea [10]
35: Events of reverse drug effects: Bad appetite [10]
